Results: ChEMBL document CHEMBL5625204, “Synthesis and pharmacodynamic evaluation of naphthalene derivatives against influenza A virus in vitro and in vivo” (Eur J Med Chem, 2023)
Activity calls are given as the source filed them. No cut-off for these calls is given here.

Legend:
[1] = Toxicity in BALB/c mouse infected with Influenza A virus H1N1 (A/Weiss/43) assessed as kidney pathological changes at 25 to 100 mg/kg/day administered intranasally for 6 days starting from 3 hrs post-viral infection by Hematoxylin-Eosin staining based analysis; type: organism-based; details: in vivo, inhaled_or_intranasal, 144 h, dose 25-100 mg/kg/day, route nas, time 6 day
[2] = system: Influenza A virus; assay: Antiviral activity against Influenza A virus H1N1 infected in human A549 cells assessed as decrease in cytokine gene expression by measuring decrease in IL-1 beta gene expression at 25 to 50 uM measured after 24 hrs by qRT-PCR analysis; type: functional, organism-based; details: dose 25-50 µM
[3] = system: Influenza A virus; assay: Inhibition of Influenza A virus replication infected in dog MDCK cells assessed as downregulation of virus M gene expression at 25 to 50 uM measured after 24 to 72 hrs post-infection by qRT-PCR analysis; type: functional, organism-based; details: dose 25-50 µM
[4] = Toxicity in dog MDCK cells assessed as proportion of necrotic cells at 50 uM measured after 72 hrs by AnnexinV-FITC/PI staining based flow cytometry (reference value: 1.4%); type: cell-based, Canis lupus familiaris
[5] = Toxicity in dog MDCK cells assessed as proportion of late apoptotic cells at 50 uM measured after 72 hrs by AnnexinV-FITC/PI staining based flow cytometry (reference value: 3.45%); type: cell-based, Canis lupus familiaris
[6] = system: Influenza A virus; assay: Antiviral activity against Influenza A virus H1N1 (A/Weiss/43)-infected in BALB/c mouse assessed as reduction in lung tissue damage administered intranasally for 4 to 6 days starting from 3 hrs post-viral infection; type: functional, organism-based; details: dose 25-100 mg/kg/day, route nas, time 4-6 day
[7] = system: Influenza A virus; assay: Antiviral activity against Influenza A virus H1N1 infected in human A549 cells assessed as decrease in RIG-1 pathway related gene expression by measuring decrease in IRF7 gene expression at 25 to 50 uM measured after 24 hrs by qRT-PCR analysis; type: functional, organism-based; details: dose 25-50 µM
[8] = system: Influenza A virus; assay: Antiviral activity against Influenza A virus H1N1 (A/Weiss/43) infected in MDCK cells assessed as reduction of viral replication treated for 2 hrs before viral infection and measured after 72 hrs by TCID50 method; type: functional, organism-based
[9] = system: Influenza A virus; assay: Inhibition of Influenza A virus replication infected in dog MDCK cells assessed as downregulation of virus M2 protein expression by measuring decrease in green fluorescence intensity at 25 to 50 uM measured after 24 hrs by immunofluorescence analysis; type: functional, organism-based; details: dose 25-50 µM
[10] = Toxicity in dog MDCK cells assessed as proportion of viable cells at 50 uM measured after 72 hrs by AnnexinV-FITC/PI staining based flow cytometry (reference value: 90.6%); type: cell-based, Canis lupus familiaris; details: read-out: Activity
[11] = system: Influenza A virus; assay: Antiviral activity against Influenza A virus H1N1 (A/Weiss/43)-infected in BALB/c mouse assessed as reduction in viral M mRNA expression in lungs at 25 to 100 mg/kg/day administered intranasally for 2 to 6 days starting from 3 hrs post-viral infection by qRT-PCR analysis; type: functional, organism-based; details: dose 25-100 mg/kg/day, route nas, time 2-6 day
[12] = system: Influenza A virus; assay: Inhibition of Influenza A virus Neuraminidase at 100 to 300 uM pretreated with enzyme for 5 mins followed by fluorogenic substrate addition and measured for 1 hr by fluorescence based analysis; details: dose 100-300 µM, time 65.0 min
[13] = system: Influenza A virus; assay: Antiviral activity against Influenza A virus infected in human A549 cells assessed as reduction of viral replication at 6.25 to 100 uM incubated for 72 hrs by TCID50 method; type: functional, organism-based; details: dose 6.25-100 µM
[14] = Toxicity in dog MDCK cells assessed as ROS production by measuring proportion of normal cells at 50 uM measured after 36 hrs by DCFH-DA staining based flow cytometry (reference value: 99.9%); type: cell-based, Canis lupus familiaris
[15] = system: Influenza A virus; assay: Antiviral activity against Influenza A virus H1N1 infected in human A549 cells assessed as decrease in cytokine gene expression by measuring decrease in IP-10 gene expression at 25 to 50 uM measured after 24 hrs by qRT-PCR analysis; type: functional, organism-based; details: dose 25-50 µM
[16] = system: Influenza A virus; assay: Antiviral activity against Influenza A virus H1N1 (A/Weiss/43)-infected in BALB/c mouse assessed as reduction in IL-6 gene expression in lungs at 25 to 100 mg/kg/day administered intranasally for 6 days starting from 3 hrs post-viral infection by qRT-PCR analysis; type: functional, organism-based; details: dose 25-100 mg/kg/day, route nas, time 6.0 day
[17] = system: Influenza A virus; assay: Antiviral activity against Influenza A virus H1N1 infected in human A549 cells assessed as decrease in RIG-1 pathway related gene expression by measuring decrease in RIG-1 gene expression at 25 to 50 uM measured after 24 hrs by qRT-PCR analysis; type: functional, organism-based; details: dose 25-50 µM
[18] = system: Influenza A virus; assay: Antiviral activity against Influenza A virus H1N1 (A/Weiss/43)-infected in BALB/c mouse assessed as reduction in viral NP mRNA expression in lungs at 25 to 100 mg/kg/day administered intranasally for 2 to 6 days starting from 3 hrs post-viral infection by qRT-PCR analysis; type: functional, organism-based; details: dose 25-100 mg/kg/day, route nas, time 2-6 day
[19] = Selectivity index, ratio of CC50 for dog MDCK cells to EC50 for antiviral activity against Influenza A virus H1N1 (A/Weiss/43) infected in MDCK cells treated for 2 hrs before viral infection and measured after 72 hrs; type: toxicity, cell-based; details: read-out: Ratio CC50/EC50
[20] = system: Influenza A virus; assay: Antiviral activity against Influenza A virus H1N1 (A/Weiss/43)-infected in BALB/c mouse assessed as reduction in viral NP protein expression in lungs at 25 to 100 mg/kg/day administered intranasally for 6 days starting from 3 hrs post-viral infection by immunohistochemistry; type: functional, organism-based; details: dose 25-100 mg/kg/day, route nas, time 6.0 day
[21] = system: Influenza A virus; assay: Antiviral activity against Influenza A virus H1N1 (A/Weiss/43) infected in MDCK cells assessed as reduction in cell pathological changes at 25 to 50 uM by microscopic analysis; type: functional, organism-based; details: dose 25-50 µM
[22] = system: Influenza A virus; assay: Antiviral activity against Influenza A virus H1N1 infected in dog MDCK cells assessed as decrease in apoptosis by measuring proportion of necrotic cells at 25 uM measured after 72 hrs by AnnexinV-FITC/PI staining based flow cytometry (reference value: 2.47%); type: functional; design: scale not given: the % may be the effect or the level left
[23] = system: Influenza A virus; assay: Antiviral activity against Influenza A virus H1N1 infected in human A549 cells assessed as decrease in cytokine gene expression by measuring decrease in TNF-alpha gene expression at 25 to 50 uM measured after 24 hrs by qRT-PCR analysis; type: functional, organism-based; details: dose 25-50 µM
[24] = system: Influenza A virus; assay: Antiviral activity against Influenza A virus H1N1 infected in human A549 cells assessed as decrease in RIG-1 pathway related protein expression by measuring decrease in NF-kappaB p65 protein expression at 25 to 50 uM measured after 24 hrs by western blot analysis; type: functional, organism-based; details: dose 25-50 µM
[25] = Selectivity index, ratio of CC50 for dog MDCK cells to EC50 for antiviral activity against Influenza A virus H1N1 (A/Weiss/43) infected in MDCK cells treated for 72 hrs after viral adsorption; type: toxicity, cell-based; details: read-out: Ratio CC50/EC50
[26] = Selectivity index, ratio of CC50 for dog MDCK cells to EC50 for antiviral activity against Influenza A virus H1N1 (A/Virginia/ATCC2/2009) infected in MDCK cells; type: toxicity, cell-based; details: read-out: Ratio CC50/EC50
[27] = system: Influenza A virus; assay: Antiviral activity against Influenza A virus H1N1 (A/Weiss/43)-infected in BALB/c mouse assessed as reduction in OAS1 gene expression in lungs at 25 to 100 mg/kg/day administered intranasally for 6 days starting from 3 hrs post-viral infection by qRT-PCR analysis; type: functional, organism-based; details: dose 25-100 mg/kg/day, route nas, time 6.0 day

O=[N+]([O-])c1ccc(S(=O)(=O)N(Cc2ccccc2)c2cccc3ccccc23)cc1
Activity [1]: Non-Toxic | inhibition [2]: Active | inhibition [3]: Active | Activity [4]: 0.82% | Activity [5]: 0.71% | Activity [6]: Dose-Dependent Effect | inhibition [7]: Active | EC50 [8]: 7.61 µM | inhibition [9]: Active | viability at 72 h, 50 µM [10]: 96.9% | Activity [11]: Active | inhibition [12]: inactive | Activity [13]: Active | Activity [14]: 98.6% | inhibition [15]: Active | Activity [16]: Active | inhibition [17]: Active | Activity [18]: Active | selectivity ratio at 72 h [19]: > 105 | Activity [20]: Active | Activity [21]: Active | Activity [22]: 0.81% | inhibition [23]: Active | inhibition [24]: Active | selectivity ratio at 72 h [25]: > 351 | selectivity ratio [26]: > 240 | Activity [27]: Active
